The NIST ThermoML archive (doi:10.1016/j.fluid.2011.11.013)
Numbers after ± are expanded uncertainties.

Details: Liquid, Closed cell (Static) method

Compound | vapor or sublimation pressure (258.15 K) [kPa] | vapor or sublimation pressure (263.15 K) [kPa] | vapor or sublimation pressure (273.15 K) [kPa] | vapor or sublimation pressure (283.15 K) [kPa]
FC(F)C(F)F [1,1,2,2-tetrafluoroethane] | 124.3 ± 1.1 | 153 ± 1.1 | 225.9 ± 1.2 | 323.4 ± 1.5
FC(F)(F)I [trifluoroiodomethane] | 133 ± 1.1 | 160.4 ± 1.1 | 228.4 ± 1.2 | 316.4 ± 1.4
